Assay results published in paper PMC3932302 (Clinical cancer research : an official journal of the …, 2013).
Blank lines part the entries; values can stand above or below the compound they belong to.

What was measured:
Assay type in all cases: cell-based
[1] = biological target: T1, organic cation transporter 1 (OCT1) (Homo sapiens, UniProt O15245); assay: inhibition of […]TEA uptake into HEK-OCT1 cells at […]
T1 sequence (O15245 1-554): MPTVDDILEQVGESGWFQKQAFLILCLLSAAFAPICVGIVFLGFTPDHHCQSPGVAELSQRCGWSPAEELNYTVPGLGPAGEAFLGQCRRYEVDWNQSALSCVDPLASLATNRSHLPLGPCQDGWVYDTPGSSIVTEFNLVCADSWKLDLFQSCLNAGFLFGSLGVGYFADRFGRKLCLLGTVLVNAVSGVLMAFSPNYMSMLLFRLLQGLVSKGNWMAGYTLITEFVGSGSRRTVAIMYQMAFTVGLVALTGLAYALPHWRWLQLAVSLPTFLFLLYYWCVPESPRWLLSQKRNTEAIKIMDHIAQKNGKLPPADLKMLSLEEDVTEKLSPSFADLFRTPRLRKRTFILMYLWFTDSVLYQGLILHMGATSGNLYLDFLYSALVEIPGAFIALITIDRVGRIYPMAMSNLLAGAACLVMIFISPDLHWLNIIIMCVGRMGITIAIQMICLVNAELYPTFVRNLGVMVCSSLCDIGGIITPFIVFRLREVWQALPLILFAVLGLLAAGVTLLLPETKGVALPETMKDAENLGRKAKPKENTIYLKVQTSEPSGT

[2] = biological target: T1, organic cation transporter 1 (OCT1)
[3] = biological target: T1, organic cation transporter 1 (OCT1); assay: inhibition of TEA uptake into OCT1-expressing cells at […]; settings: read-out: % inhibition at 50 μmol/L

Structure (SMILES): CCN1/C(=C/c2ccc3ccccc3[n+]2CC)C=Cc2ccccc21 [decynium22]
inhibition of [14C]TEA uptake into HEK-OCT1 cells at 5 μmol/L [1]: OCT1-dependent TEA uptake was significantly reduced in the presence of the inhibitors prazosin and decynium22 (Fig. 4A)

Structure (SMILES): COc1cc2nc(N3CCN(C(=O)c4ccco4)CC3)nc(N)c2cc1OC [prazosin]
inhibition of [14C]TEA uptake into HEK-OCT1 cells [2]: OCT1-dependent TEA uptake was significantly reduced in the presence of the inhibitors prazosin and decynium22 (Fig. 4A)

inhibition at 50 µM [3]: 90.7 ± 1%
Structure (SMILES): Cc1ccc(NC(=O)c2ccc(CN3CCNCC3)cc2)cc1Nc1nccc(-c2cccnc2)n1 [N-desmethyl imatinib]
